# Literature values as cited in publication PMC8513935.
# Key:
# [1] = derived by the authors as gas->solvent minus gas->water (a hypothetical dry solvent; the ESI), not a two-phase measurement
# [2] = log P octanol/water from commercial databases, averaged (the ESI); conditions: Octanol (wet), 25 C
# [3] = experimental, compiled by the authors from the literature (the ESI cites the sources)
compound,measurement,setting,value
c1ccc2c(c1)-c1cccc3cccc-2c13,"log K of transfer, water to solvent","[1]; 1,2-Dichloroethane, 25 C",6.08 log10 K
same,"log K of transfer, water to solvent","[1]; 2-Methylpropan-1-ol, 25 C",4.66 log10 K
same,"log K of transfer, water to solvent","[1]; 3-Methylbutan-1-ol, 25 C",4.81 log10 K
same,"log K of transfer, water to solvent","[1]; Acetonitrile, 25 C",5.31 log10 K
same,"log K of transfer, water to solvent","[1]; Benzene, 25 C",6.02 log10 K
same,"log K of transfer, water to solvent","[1]; Butan-1-ol, 25 C",4.96 log10 K
same,"log K of transfer, water to solvent","[1]; Butan-2-ol, 25 C",4.81 log10 K
same,"log K of transfer, water to solvent","[1]; CCl4, 25 C",5.83 log10 K
same,"log K of transfer, water to solvent","[1]; Chloroform, 25 C",6.12 log10 K
same,"log K of transfer, water to solvent","[1]; Cyclohexane, 25 C",5.07 log10 K
same,"log K of transfer, water to solvent","[1]; Di-n-butyl ether, 25 C",5.41 log10 K
same,"log K of transfer, water to solvent","[1]; Diethyl Ether, 25 C",5.64 log10 K
same,"log K of transfer, water to solvent","[1]; Ethanol, 25 C",4.89 log10 K
same,"log K of transfer, water to solvent","[1]; Heptan-1-ol, 25 C",5.28 log10 K
same,"log K of transfer, water to solvent","[1]; Hexadecane, 25 C",5.38 log10 K
same,"log K of transfer, water to solvent","[1]; Hexan-1-ol, 25 C",5.13 log10 K
same,"log K of transfer, water to solvent","[1]; Hexane, 25 C",4.98 log10 K
same,"log K of transfer, water to solvent","[1]; Methanol, 25 C",4.74 log10 K
same,"log K of transfer, water to solvent","[1]; Octan-1-ol(dry), 25 C",5.17 log10 K
same,"log K of transfer, water to solvent","[1]; Pentan-1-ol, 25 C",5.05 log10 K
same,"log K of transfer, water to solvent","[1]; Propan-1-ol, 25 C",4.87 log10 K
same,"log K of transfer, water to solvent","[1]; Propan-2-ol, 25 C",4.72 log10 K
same,"log K of transfer, water to solvent","[1]; Toluene, 25 C",5.94 log10 K
same,"log K of transfer, water to solvent",[2],5.16 log10 K
same,"log K of transfer, gas to solvent","[3]; 1,2-Dichloroethane, 25 C",9.52 log10 K
same,"log K of transfer, gas to solvent","[3]; 2-Methylpropan-1-ol, 25 C",8.1 log10 K
same,"log K of transfer, gas to solvent","[3]; 3-Methylbutan-1-ol, 25 C",8.25 log10 K
same,"log K of transfer, gas to solvent","[3]; Acetonitrile, 25 C",8.75 log10 K
same,"log K of transfer, gas to solvent","[3]; Benzene, 25 C",9.46 log10 K
same,"log K of transfer, gas to solvent","[3]; Butan-1-ol, 25 C",8.4 log10 K
same,"log K of transfer, gas to solvent","[3]; Butan-2-ol, 25 C",8.25 log10 K
same,"log K of transfer, gas to solvent","[3]; CCl4, 25 C",9.27 log10 K
same,"log K of transfer, gas to solvent","[3]; Chloroform, 25 C",9.56 log10 K
same,"log K of transfer, gas to solvent","[3]; Cyclohexane, 25 C",8.51 log10 K
same,"log K of transfer, gas to solvent","[3]; Di-n-butyl ether, 25 C",8.84 log10 K
same,"log K of transfer, gas to solvent","[3]; Diethyl Ether, 25 C",9.08 log10 K
same,"log K of transfer, gas to solvent","[3]; Ethanol, 25 C",8.33 log10 K
same,"log K of transfer, gas to solvent","[3]; Heptan-1-ol, 25 C",8.72 log10 K
same,"log K of transfer, gas to solvent","[3]; Hexadecane, 25 C",8.82 log10 K
same,"log K of transfer, gas to solvent","[3]; Hexan-1-ol, 25 C",8.56 log10 K
same,"log K of transfer, gas to solvent","[3]; Hexane, 25 C",8.41 log10 K
same,"log K of transfer, gas to solvent","[3]; Methanol, 25 C",8.18 log10 K
same,"log K of transfer, gas to solvent","[3]; Octan-1-ol, 25 C",8.61 log10 K
same,"log K of transfer, gas to solvent","[3]; Pentan-1-ol, 25 C",8.49 log10 K
same,"log K of transfer, gas to solvent","[3]; Propan-1-ol, 25 C",8.31 log10 K
same,"log K of transfer, gas to solvent","[3]; Propan-2-ol, 25 C",8.15 log10 K
same,"log K of transfer, gas to solvent","[3]; Toluene, 25 C",9.38 log10 K
same,"log K of transfer, gas to solvent","[3]; Water, 25 C",3.44 log10 K
CC=C(C)C,"log K of transfer, water to solvent","[1]; 2-Methylpropan-2-ol, 25 C",3.32 log10 K
same,"log K of transfer, water to solvent","[1]; CCl4, 25 C",3.34 log10 K
same,"log K of transfer, water to solvent","[1]; Cyclohexanone, 25 C",3.22 log10 K
same,"log K of transfer, water to solvent","[1]; Hexadecane, 25 C",3.19 log10 K
same,"log K of transfer, water to solvent",[2],2.67 log10 K
same,"log K of transfer, gas to solvent","[3]; 2-Methylpropan-2-ol, 25 C",2.36 log10 K
same,"log K of transfer, gas to solvent","[3]; CCl4, 25 C",2.38 log10 K
same,"log K of transfer, gas to solvent","[3]; Cyclohexanone, 25 C",2.26 log10 K
same,"log K of transfer, gas to solvent","[3]; Hexadecane, 25 C",2.23 log10 K
same,"log K of transfer, gas to solvent","[3]; Water, 25 C",-0.96 log10 K
CCN(CC)CC,"log K of transfer, water to solvent","[1]; 1,2-Dichloroethane, 25 C",0.85 log10 K
same,"log K of transfer, water to solvent","[1]; Acetone, 25 C",0.61 log10 K
same,"log K of transfer, water to solvent","[1]; Butan-1-ol, 25 C",1.2 log10 K
same,"log K of transfer, water to solvent","[1]; Butan-2-ol, 25 C",1.17 log10 K
same,"log K of transfer, water to solvent","[1]; Butanone, 25 C",0.69 log10 K
same,"log K of transfer, water to solvent","[1]; CCl4, 25 C",1.18 log10 K
same,"log K of transfer, water to solvent","[1]; Chlorobenzene, 25 C",0.99 log10 K
same,"log K of transfer, water to solvent","[1]; Chloroform, 25 C",1.86 log10 K
same,"log K of transfer, water to solvent","[1]; Cyclohexanone, 25 C",0.654 log10 K
same,"log K of transfer, water to solvent","[1]; Diethyl Ether, 25 C",0.9 log10 K
same,"log K of transfer, water to solvent","[1]; Ethanol, 25 C",1.21 log10 K
same,"log K of transfer, water to solvent","[1]; Hexadecane, 25 C",0.68 log10 K
same,"log K of transfer, water to solvent","[1]; Hexane, 25 C",0.93 log10 K
same,"log K of transfer, water to solvent","[1]; Methanol, 25 C",1.48 log10 K
same,"log K of transfer, water to solvent","[1]; Pentan-1-ol, 25 C",1.28 log10 K
same,"log K of transfer, water to solvent","[1]; Propan-1-ol, 25 C",1.14 log10 K
same,"log K of transfer, water to solvent","[1]; Propan-2-ol, 25 C",0.95 log10 K
same,"log K of transfer, water to solvent","[1]; Tetrahydrofuran, 25 C",1.01 log10 K
same,"log K of transfer, water to solvent",[2],1.45 log10 K
same,"log K of transfer, gas to solvent","[3]; 1,2-Dichloroethane, 25 C",3.21 log10 K
same,"log K of transfer, gas to solvent","[3]; Butan-1-ol, 25 C",3.56 log10 K
same,"log K of transfer, gas to solvent","[3]; Butan-2-ol, 25 C",3.53 log10 K
same,"log K of transfer, gas to solvent","[3]; Butanone, 25 C",3.05 log10 K
same,"log K of transfer, gas to solvent","[3]; CCl4, 25 C",3.54 log10 K
same,"log K of transfer, gas to solvent","[3]; Chlorobenzene, 25 C",3.35 log10 K
same,"log K of transfer, gas to solvent","[3]; Chloroform, 25 C",4.22 log10 K
same,"log K of transfer, gas to solvent","[3]; Cyclohexanone, 25 C",3.01 log10 K
same,"log K of transfer, gas to solvent","[3]; Diethyl Ether, 25 C",3.26 log10 K
same,"log K of transfer, gas to solvent","[3]; Ethanol, 25 C",3.57 log10 K
same,"log K of transfer, gas to solvent","[3]; Hexadecane, 25 C",3.04 log10 K
same,"log K of transfer, gas to solvent","[3]; Hexane, 25 C",3.29 log10 K
same,"log K of transfer, gas to solvent","[3]; Methanol, 25 C",3.84 log10 K
same,"log K of transfer, gas to solvent","[3]; Pentan-1-ol, 25 C",3.64 log10 K
same,"log K of transfer, gas to solvent","[3]; Propan-1-ol, 25 C",3.5 log10 K
same,"log K of transfer, gas to solvent","[3]; Propan-2-ol, 25 C",3.31 log10 K
same,"log K of transfer, gas to solvent","[3]; Propanone, 25 C",2.97 log10 K
same,"log K of transfer, gas to solvent","[3]; Tetrahydrofuran, 25 C",3.37 log10 K
same,"log K of transfer, gas to solvent","[3]; Water, 25 C",2.36 log10 K
CCC(C)CC,"log K of transfer, water to solvent","[1]; Butan-1-ol, 25 C",4.18 log10 K
same,"log K of transfer, water to solvent","[1]; Hexadecane, 25 C",4.42 log10 K
same,"log K of transfer, water to solvent","[1]; Pentan-1-ol, 25 C",4.28 log10 K
same,"log K of transfer, water to solvent",[2],3.6 log10 K
same,"log K of transfer, gas to solvent","[3]; Butan-1-ol, 25 C",2.34 log10 K
same,"log K of transfer, gas to solvent","[3]; Hexadecane, 25 C",2.58 log10 K
same,"log K of transfer, gas to solvent","[3]; Pentan-1-ol, 25 C",2.44 log10 K
same,"log K of transfer, gas to solvent","[3]; Water, 25 C",-1.84 log10 K
CCC(=O)CC,"log K of transfer, water to solvent","[1]; Cyclohexane, 25 C",0.65 log10 K
same,"log K of transfer, water to solvent","[1]; Hexadecane, 25 C",0.311 log10 K
same,"log K of transfer, water to solvent","[1]; Octan-1-ol(dry), 25 C",0.7 log10 K
same,"log K of transfer, water to solvent",[2],0.82 log10 K
same,"log K of transfer, gas to solvent","[3]; Cyclohexane, 25 C",3.15 log10 K
same,"log K of transfer, gas to solvent","[3]; Hexadecane, 25 C",2.81 log10 K
same,"log K of transfer, gas to solvent","[3]; Octan-1-ol, 25 C",3.2 log10 K
same,"log K of transfer, gas to solvent","[3]; Water, 25 C",2.5 log10 K
